Where a SMILES comes first, the peptide text is derived from it.
Tested on: prolyl endopeptidase
Assay: not given
Details: literature, J. Neurochem., 41, 69 (1983); cited from earlier work
For `O=C(NCC(=O)N1CCC[C@H]1C(=O)CCl)OCc1ccccc1` [N-benzyloxycarbonyl-glycyl-L-prolyl-chloromethane] (HELM PEPTIDE1{[O=C(OCc1ccccc1)[*:2]].G.P.[ClC[*:1]]}$$$$V2.0), the inhibit prolyl endopeptidase is listed as “strongly inhibit”.

Molecular target: T1, prolyl endopeptidase (Bos taurus, UniProt Q9XTA2)
T1 construct: prolyl endopeptidase which was purified from bovine brain; from tissue; host or cells: bovine brain (purified enzyme)
T1 sequence (Q9XTA2 whole entry): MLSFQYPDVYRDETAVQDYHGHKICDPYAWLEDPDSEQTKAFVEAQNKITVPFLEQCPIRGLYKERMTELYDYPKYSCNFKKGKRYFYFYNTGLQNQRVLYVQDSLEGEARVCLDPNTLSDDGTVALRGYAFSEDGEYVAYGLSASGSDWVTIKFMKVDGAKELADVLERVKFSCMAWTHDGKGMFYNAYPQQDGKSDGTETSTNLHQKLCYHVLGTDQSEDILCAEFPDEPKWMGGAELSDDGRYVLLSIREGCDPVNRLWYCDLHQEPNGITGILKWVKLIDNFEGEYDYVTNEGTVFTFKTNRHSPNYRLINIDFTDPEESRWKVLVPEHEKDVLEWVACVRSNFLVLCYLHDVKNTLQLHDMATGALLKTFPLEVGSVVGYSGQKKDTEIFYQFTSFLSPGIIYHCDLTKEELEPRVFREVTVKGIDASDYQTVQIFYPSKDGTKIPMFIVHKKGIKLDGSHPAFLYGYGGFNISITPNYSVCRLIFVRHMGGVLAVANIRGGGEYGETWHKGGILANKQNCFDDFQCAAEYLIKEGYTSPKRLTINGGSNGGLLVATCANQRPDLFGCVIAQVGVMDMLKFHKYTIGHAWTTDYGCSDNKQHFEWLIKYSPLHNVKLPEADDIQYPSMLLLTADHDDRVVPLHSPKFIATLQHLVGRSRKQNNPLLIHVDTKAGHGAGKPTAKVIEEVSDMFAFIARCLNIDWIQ
Assay: Prolyl endopeptidase inhibitory activity in vitro
Type: biochemical
Details: enzyme purified from bovine brain, pH 7.5, 37° C., substrate N-benzyloxycarbonyl-glycyl-prolyl-p-nitroanilide, read-out: Concentration for 50% inhibition IC50
Experimental: For example, in a standard laboratory test, results in the following were given.
Prolyl endopeptidase inhibitory activity in vitro
Inhibitory activity of prolyl endopeptidase in vitro was measured by the following test system.
A mixed solution of 20 mM tris-HCl buffer (pH 7.5; 935 μl; containing 10 mM EDTA and 10 mM mercaptoethanol), a solution of a compound of the present invention in DMSO (10 μl) and a solution of prolyl endopeptidase which was purified from bovine brain (0.13 unit ml; prepared by the method described in J. Biochem., 94, 1179 (1983) ) in tris-HCl buffer (15 μl) was preincubated for 15 mins at 37° C.
To the solution, 5 mM of N-benzyloxycarbonyl-glycyl-prolyl-p-nitroanilide (40 μl) in a mixture of 40% dioxane-60% water was added. The solution was incubated for 1 min at the same temperature.
Optical absorption (a1) at 405 nm of the solution, and optical absorption (a2) at 405 nm of the solution after more 30 mins' incubation at 37° C. were measured.
Optical absorptions (b1 and b2) of the solutions using DMSO instead of the solution of the compound of the present invention were also measured.
Inhibitory ratio was calculated by the following expression and IC50 (required concentration for 50% inhibition) was obtained (See Protein, Nucleic acid and Enzyme 25(6), 513, 1980.). [formula] Toxicity
Work on `CCOC(=O)C(=O)[C@@H]1CCCN1C(=O)C(CCCCCc1ccccc1)C(C)C` (mixture of isomers) [2 (h), 2-[(2S)-1-[(2RS)-2-isopropyl-7-phenylheptanoyl]pyrrolidin-2-yl]-2-oxoacetic acid ethyl ester] yielded an IC50 of 17 nM. `CCC(O)[C@@H]1CSCN1C(=O)C1CCCCN1C(=O)CCc1ccccc1` (mixture of isomers) [15 (a), (1RS)-1-[(4R)-3-[1-(3-phenylpropanoyl)piperidin-2-ylcarbonyl]thiazolidin-4-yl]propan-1-ol] showed an IC50 of 120 nM. For `CN(Cc1ccccc1)C(=O)CCC(=O)N1CCC[C@H]1C(O)C(=O)OCc1ccccc1` (mixture of isomers) [Example 6, (2RS)-2-[(2S)-1-[3-(N-benzyl-N-methylcarbamoyl)propanoyl]pyrrolidin-2-yl]-2-hydroxyacetic acid benzyl ester], the IC50 was 3000 nM. `CCOC(=O)C(F)(F)C(O)[C@@H]1CCCN1C(=O)CCC(=O)N(C)Cc1ccccc1` (mixture of isomers) [Example 12, (3RS)-3-[(2S)-1-[3-(N-benzyl-N-methylcarbamoyl)propanoyl]pyrrolidin-2-yl]-3-hydroxy-2,2-difluoropropionic acid ethyl ester] gave an IC50 of 69000 nM. Work on `CCC(O)[C@@H]1CCCN1C(=O)CCC(=O)N(C)Cc1ccccc1` (mixture of isomers) [Example 15, (1RS)-1-[(2S)-1-[3-(N-benzyl-N-methylcarbamoyl)propanoyl]pyrrolidin-2-yl]-propan-1-ol] yielded an IC50 of 1500 nM. Work on `CCOC(=O)C(=O)[C@@H]1CCCN1C(=O)CCC(=O)NC1c2ccccc2-c2ccccc21` [2 (b), 2-[(2S)-1-[3-[N-(9-fluorenyl)carbamoyl]propanoyl]pyrrolidin-2-yl]-2-oxoacetic acid ethyl ester] yielded an IC50 of 1.8 nM. Work on `CCOC(=O)C(=O)[C@@H]1CCCN1C(=O)CCC(=O)N(Cc1ccc(C(F)(F)F)cc1)c1ccccc1` [2 (d), 2-[(2S)-1-[3-[N-(4-trifluoromethylphenylmethyl)-N-phenylcarbamoyl]propanoyl]pyrrolidin-2-yl]-2-oxoacetic acid ethyl] yielded an IC50 of 0.85 nM. Work on `CCOC(=O)C(=O)[C@@H]1CCCN1C(=O)CCC(=O)N(Cc1ccccc1)c1ccccc1` [2 (g), 2-[(2S)-1-[3-(N-benzyl-N-phenylcarbamoyl)propanoyl]pyrrolidin-2-yl]-2-oxoacetic acid ethyl ester] yielded an IC50 of 1.7 nM. `CCOC(=O)C(=O)[C@@H]1CCCN1C(=O)CCC(=O)NCc1ccc(Cl)cc1Cl` [2 (l), 2-[(2S)-1-[3-[N-(2,4-dichloro-phenylmethyl)carbamoyl]propanoyl]pyrrolidin-2-yl]-2-oxoacetic acid ethyl ester] gave an IC50 of 1.8 nM. `O=C(CCCc1ccccc1)N1CSC[C@H]1C(=O)N1CSC[C@H]1C(O)c1ccccc1` (stereo partly drawn) [17 (a), (1RS)-1-phenyl-1-[(4R)-3-[(4R)-3-(4-phenylbutanoly)thiazolidin-4-ylcarbonyl]thiazolidin-4-yl]methanol] showed an IC50 of 180 nM. Work on `CCOC(=O)C(=O)[C@@H]1CCCN1C(=O)CCC(=O)N(C)Cc1ccccc1` [Example 2, 2-[(2S)-1-[3-(N-benzyl-N-methylcarbamoyl)propanoyl]pyrrolidin-2-yl]-2-oxoacetic acid ethyl ester] yielded an IC50 of 3 nM. With `CN(Cc1ccccc1)C(=O)CCC(=O)N1CCC[C@H]1C(=O)C(=O)OCc1ccccc1` [Example 7, 2-[(2S)-1-[3-(N-benzyl-N-methylcarbamoyl)propanoyl]pyrrolidin-2-yl]-2-oxoacetic acid benzyl ester] the IC50 was 1.2 nM. In the case of `CN(Cc1ccccc1)C(=O)CCC(=O)N1CCC[C@H]1C(=O)C(F)(F)F` [Example 9, 1-[(2S)-1-[3-(N-benzyl-N-methylcarbamoyl)propanoyl]pyrrolidin-2-yl]-2,2,2-trifluoroethan-1-one], the IC50 is reported as 23 nM. In the case of `CCOC(=O)C(F)(F)C(=O)[C@@H]1CCCN1C(=O)CCC(=O)N(C)Cc1ccccc1` [Example 13, 3-[(2S)-1-[3-(N-benzyl-N-methylcarbamoyl)propanoyl]pyrrolidin-2-yl]-3-oxo-2,2-difluoropropionic acid ethyl ester], the IC50 is reported as 100 nM. With `CN(Cc1ccccc1)C(=O)CCC(=O)N1CCC[C@H]1C1OCCO1` [Example 19, 2-[(2S)-1-[3-(N-benzyl-N-methylcarbamoyl)propanoyl]pyrrolidin-2-yl]-1,3-dioxolane] the IC50 was 14000 nM.
